Test results from US20220287995A1, “COMPOSITIONS AND METHODS FOR INHIBITING BACTERIAL VIRULENCE AND FLIM-BASED DEVICE AND METHOD FOR ANTIBIOTIC SUSCEPTIBILITY TESTING” (THE REGENTS OF THE UNIVERSITY OF CALIFORNIA, priority 2019, published 2022).

System: P. aeruginosa
Assay: Surface density measurement of P. aeruginosa from virulence assays
Format: cell-based, Pseudomonas aeruginosa
Conditions: virulence assays after 6 hours of growth, carbon source 0.2%
Description: The density of P. aeruginosa cells on surface was measured as described previously (1) using amoebae cell viability phase contrast images that were acquired using a 10× or 20× objective. The IJ_Isodata algorithm (ImageJ 1.52q) was applied to phase contrast images to construct cell boundary masks. The cell density was computed by dividing the area covered by P. aeruginosa by the total area of the image.

## O=C(O)CC(O)(CC(=O)O)C(=O)O [citrate]
  surface density of P. aeruginosa: did not decrease the surface density
